This is an account of results in PubChem BioAssay AID588633 (Johns Hopkins Ion Channel Center, 2011).

Active and inactive are the calls of the source.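 The calls were made as follows: active = TRPV1 channel activation above 50%; inactive = activation of 50% or less.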

The target of the test is Transient receptor potential cation channel subfamily V member 1 (Homo sapiens) (UniProt Q8NER1). As to the kind of experiment: activation of human TRPV1 currents – automated patch clamp, HEK293 cells, confirmation (AID 588633). Particulars: TRPV1-HEK293, automated patch clamp current; at 10 µM; active compounds read high.
Chain of Transient receptor potential cation channel subfamily V member 1 (Homo sapiens) (Q8NER1 whole entry, looked up): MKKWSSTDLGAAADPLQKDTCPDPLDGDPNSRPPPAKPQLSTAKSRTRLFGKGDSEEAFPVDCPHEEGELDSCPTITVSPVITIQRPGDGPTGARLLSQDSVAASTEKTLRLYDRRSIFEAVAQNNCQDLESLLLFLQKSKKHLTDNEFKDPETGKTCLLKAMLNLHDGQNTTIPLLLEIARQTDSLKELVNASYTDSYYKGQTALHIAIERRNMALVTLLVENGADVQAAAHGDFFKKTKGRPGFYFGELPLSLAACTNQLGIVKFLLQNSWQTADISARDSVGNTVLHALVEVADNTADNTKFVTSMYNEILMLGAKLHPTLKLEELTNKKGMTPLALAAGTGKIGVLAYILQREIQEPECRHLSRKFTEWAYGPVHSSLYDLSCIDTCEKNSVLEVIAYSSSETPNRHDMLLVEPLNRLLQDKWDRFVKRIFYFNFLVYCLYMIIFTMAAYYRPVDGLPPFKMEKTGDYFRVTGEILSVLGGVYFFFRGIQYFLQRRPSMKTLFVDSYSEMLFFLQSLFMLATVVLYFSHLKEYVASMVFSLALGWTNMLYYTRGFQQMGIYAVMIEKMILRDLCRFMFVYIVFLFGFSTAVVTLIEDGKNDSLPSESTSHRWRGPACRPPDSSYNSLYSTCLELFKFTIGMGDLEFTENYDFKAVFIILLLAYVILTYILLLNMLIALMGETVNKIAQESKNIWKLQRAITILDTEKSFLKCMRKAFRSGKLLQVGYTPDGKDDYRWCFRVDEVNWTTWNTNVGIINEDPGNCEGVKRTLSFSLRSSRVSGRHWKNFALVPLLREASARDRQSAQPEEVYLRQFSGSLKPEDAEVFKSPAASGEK
`O=C(Nc1cccc([N+](=O)[O-])c1)c1ccc(-c2ccccc2)cc1`: the activation was 5.26% (inactive).

In the case of `Cc1ccc(N2CCN(C(=O)N3CCOCC3)CC2)c(C)c1`, the activation is 33.5% (inactive).

Take `CC1CCN(C(=O)/C=C/c2ccc(C(C)(C)C)cc2)CC1`: the activation is 12.5% (inactive).

Regarding `Cc1cc2oc(C(=O)Nc3cccnc3)c(C)c2cc1C`, the activation was 6.35% (inactive).

With `Cc1cccn2c(=O)c3cc(C(=O)NCC4CCCO4)c(=N)n(Cc4ccc(F)cc4)c3nc12` (centres undefined), the activation was 229%.

For `COc1ccc(CNC(=S)NCc2ccc(Cl)cc2)cc1OC`, the activation is 272%.

`Cc1ccc(C(=O)Nc2ccc(SC(F)F)cc2)s1`: the activation was 54.6%.

As for `CC(C)(C)c1ccc(C(=O)Nc2ccc(S(N)(=O)=O)cc2)cc1`, the activation is 378%.

For `CCCCCCCCC(=O)NCc1ccc(O)c(OC)c1`, the activation was 43.2% (inactive).

For the compound `O=C(/C=C\c1cn(-c2ccccc2)nc1-c1cccs1)N1CCOCC1`, the activation is 272%.

On to `CCc1ccc2oc(C(=O)Nc3cccnc3)c(C)c2c1`, for which the activation is 4.84% (inactive).

Take `O=C(COC(=O)C12CC3CC(CC(C3)C1)C2)Nc1ccc2[nH]c(=O)[nH]c2c1`: the activation is 34.9% (inactive).

On to `COc1ccc(Cn2nc(-c3ccccc3)c(N3CCCCC3)cc2=O)cc1`, for which the activation is 143%.

Regarding `CC(C)(C)OC(=O)CNC(=O)c1[nH]cnc1C(=O)N[C@@H](Cc1ccccc1)C(=O)OC(C)(C)C`, the activation was 28.7% (inactive).

In the case of `Cc1ccc(NC(=O)c2cc3c(s2)CCCC3)cc1`, the activation was 402%.

With `Cc1cc(C(=O)N/N=C/c2cccc([N+](=O)[O-])c2)c(C)n1-c1ccccc1`, the activation is 76.2%.

In the case of `CC(C)CCSc1nc(N2CCOCC2)c2c(c1C#N)CC(C)(C)OC2`, the activation was 93.7%.

For `COc1ccc(NC(=O)CCCSc2nc(-c3ccco3)cc(C(F)(F)F)n2)cc1OC`, the activation was 406%.

For `CCN(CC)S(=O)(=O)c1ccc(/C=C/C(=O)Nc2ccc(N3CCOCC3)cc2)cc1`, the activation was 27.1% (inactive).

Consider `O=C(Nc1cccnc1)c1ccc(-c2ccccc2)cc1`, for which the activation was 67%.

Take `CCCOc1ccc(/C=C/C(=O)N2CCOCC2)cc1`: the activation was 338%.

For the compound `CC(C)(C)c1ccc(/C=C/C(=O)Nc2cccnc2)cc1`, the activation is 131%.

On to `CCCCCC1CCC(C(=O)N2CCOCC2)CC1` (centres undefined), for which the activation is 57%.

As for `COc1ccc(Nc2nc(C)nc3c2oc2ccccc23)cc1`, the activation is 419%.

`CC(=O)c1ccc(N2CCN(C(=O)Nc3ccc(Cl)cc3)CC2)cc1`: the activation is 6.07% (inactive).

With `CCC(C)(C)c1ccc(OCC(=O)Nc2ccncc2)cc1`, the activation is 440%.

On to `Oc1ccccc1N=Cc1c(O)ccc2ccccc12`, for which the activation was 10.6% (inactive).

In the case of `COc1cccc(/C=N/n2c(SC)nnc2-c2ccccc2)c1O`, the activation was 173%.

On to `CCN(c1ccc(NC(=O)c2ccc(Cl)nc2)cc1)C(C)C`, for which the activation was 291%.

As for `CS(=O)(=O)N1CCc2cc(C(=O)Nc3ccc(Br)cc3)ccc21`, the activation is 5.79% (inactive).

`CC(C)c1ccc(NC2CCCN(C(=O)c3ccco3)C2)cc1` (centres undefined): the activation was 387%.

Consider `Cc1ccc(S(=O)(=O)Cc2ccc(C(=O)NCCc3ccccc3)o2)cc1`, for which the activation is 50.9%.

With `CC(C)c1ccc(/C=C/C(=O)N2CCOCC2)cc1`, the activation is 242%.

With `CC(=O)Nc1ccc(N=Cc2c(O)ccc3ccccc23)cc1`, the activation is 30% (inactive).

Regarding `O=C(NCCCc1ccccc1)c1ccc(F)cc1`, the activation was -2.6% (inactive).

In the case of `CCOC(=O)[C@H]1[C@H]2COc3ccc(Cl)cc3[C@@H]2N2C(=O)c3ccc(C)cc3NC(=O)[C@@]12C`, the activation was 34% (inactive).

With `Cc1cnc(NC(=O)c2cc3c(s2)CCCC3)s1`, the activation was 32.4% (inactive).

`CC(=O)c1ccc(NC(=O)N2CCN(c3ccc(C)cc3)C(C)C2)cc1` (centres undefined): the activation was 155%.

Turning to `O=C(/C=C\c1cn(-c2ccccc2)nc1-c1ccc2c(c1)OCCO2)N1CCOCC1`, the activation was 226%.

As to `CCOC(=O)c1sc(-c2ccccc2)cc1NC(=O)Nc1ccccc1`, the activation was 43.2% (inactive).

For `COc1ccc(NC2c3ccccc3C(=O)N2Cc2ccc3c(c2)OCO3)cc1` (centres undefined), the activation is 330%.

With `CC(C)(C)c1ccc(/C=N/OCC(=O)NCc2ccc(F)cc2)cc1`, the activation is 9.95% (inactive).

Consider `COCCNC(=O)CCc1c(C)nc2c(c(C)nn2-c2ccc(C)cc2)c1C`, for which the activation is 197%.

As to `CCc1nc(Nc2ccccc2)c2oc3ccccc3c2n1`, the activation is 128%.

As to `Cc1ccc(Nc2ncnc3c2oc2ccccc23)cc1`, the activation was 200%.

As to `O=C(C1=C[C@@H](c2ccccc2)C[C@@H](OCc2ccc(CO)cc2)O1)N1CCCCCCC1`, the activation is 323%.

As to `CC(=O)c1ccc(Nc2ncnc3c2oc2ccccc23)cc1`, the activation is 69.7%.

As for `Cc1cc2c(NC(=O)Nc3ccc(C(C)(C)C)cc3)cccc2nn1`, the activation was 200%.

With `O=C(Nc1ccc(N2CCCCCC2)cc1)c1cccc(S(=O)(=O)N2CCOCC2)c1`, the activation is 197%.

`CC(C)(C)c1ccc2c(c1)OC(C(=O)N/N=C\c1ccncc1)CO2` (centres undefined): the activation was 182%.

Take `CC(OC(=O)CC1CCCCC1)C(=O)Nc1ccc(F)cc1` (centres undefined): the activation is 77.3%.

With `CC(C)(C)c1ccc(C(=O)Nc2ccc3c(c2)C(=O)NC3=O)cc1`, the activation is 3.59% (inactive).

On to `CC(C)c1ccc(CNNC(=O)c2ccccc2)cc1`, for which the activation is 156%.

Consider `CC(C)(C)c1ccc(OCCNC(=O)Cc2ccc(F)cc2)cc1`, for which the activation was 39.6% (inactive).

`CCCn1c(SC(C)C(=O)N2CCOCC2)nc2ccc(Br)cc2c1=O` (centres undefined): the activation was 253%.

With `COC(=O)c1[nH]c2ccc(C)cc2c1NC(=O)CN1CCCC(C)(C)C1`, the activation is 61.2%.

For the compound `COc1ccc(Nc2ncnc3c2oc2ccccc23)cc1`, the activation was 48.6% (inactive).

Turning to `Cc1nc(Nc2cccc(F)c2)c2oc3ccccc3c2n1`, the activation is 58.3%.

Turning to `Cc1ccc(C2=NN(C)c3nc4ccccc4n3C2)cc1`, the activation was 105%.

For `O=C(CCc1ccccc1)N1CCCC(Nc2ccc(F)cc2)C1` (centres undefined), the activation is 585%.

Consider `Cc1nc(Nc2cccc(Cl)c2)c2oc3ccccc3c2n1`, for which the activation is 34.8% (inactive).

As for `CC(C)(C)c1ccc(NC(=O)N2CCCN(c3ccc([N+](=O)[O-])cn3)CC2)cc1`, the activation was 287%.

With `Cc1ccc(/C=N/Nc2nc(N3CCCCC3)nc(N3CCCCC3)n2)o1`, the activation was 148%.

With `Cc1ncsc1CCC(=O)N1CCCC(Nc2ccc(C(C)C)cc2)C1` (centres undefined), the activation was 335%.

In the case of `Cc1ccc2nc(-c3ccccn3)cc(C(=O)Nc3ccc4c(c3)OCO4)c2c1`, the activation was 1.55% (inactive).

For `CC(C)c1ccc(NCCC(=O)c2cccs2)cc1`, the activation was 57.6%.

In the case of `O=C(NCc1cccnc1)C1CCC(c2ccc(Cl)cc2)CC1` (centres undefined), the activation was 196%.

Turning to `CC(C)(C)c1cc(CCC(=O)NCc2ccncc2)cc(C(C)(C)C)c1O`, the activation was 265%.

As to `COc1ccc(C(=O)Nc2ccc(C3=NNC(=O)CC3C)cc2NC(=O)c2ccc(OC)cc2)cc1` (centres undefined), the activation was 51.6%.

For `Cc1ccc(Nc2nc(C)nc3c2oc2ccccc23)cc1`, the activation was 317%.

As for `CC(C)(C)c1ccc(/C=C/C(=O)Nc2ccncc2)cc1`, the activation was 69.2%.

Consider `O=C(C1=NOC(CNc2ncc(C(F)(F)F)cc2Cl)C1)N1CCOCC1` (centres undefined), for which the activation was 157%.

In the case of `CCC(C)Sc1cccc(-c2nc3cc(C)ccn3c2NCc2ccccc2)c1` (centres undefined), the activation is 63.1%.

In the case of `CCC(C)Sc1ccc(-c2nc3ccc(C)cn3c2NCc2ccccc2)cc1OC` (centres undefined), the activation is 27.4% (inactive).

Turning to `O=C(c1cc(-c2ccc(Cl)cc2Cl)on1)N1CCOCC1`, the activation is 334%.

For `CCCSc1ccc(-c2nn(-c3ccccc3)cc2/C=C(/C#N)C(=O)N2CCOCC2)cc1`, the activation was 23.7% (inactive).

As for `CC1CCCN(c2ccc(C(=O)Nc3cccnc3)cc2[N+](=O)[O-])C1` (centres undefined), the activation was 467%.

`CC(C)(C)c1ccc(NC(=O)c2ccsc2)cc1`: the activation is 199%.

`O=C(Nc1ccccc1)c1cc(-c2ccccc2Cl)no1`: the activation is 40.5% (inactive).

Take `CCc1nc(Nc2ccc3c(c2)OCCO3)c2oc3ccccc3c2n1`: the activation was 111%.

Take `CCc1ccc(NC(=O)Nc2ccc3c(c2)N(C)C(=O)CS3)cc1`: the activation is 28.7% (inactive).

Take `CCN(CCNC(=O)c1ccc(C#N)cc1)c1cccc(C)c1`: the activation is 427%.

On to `O=C(Nc1ccc(C(F)(F)F)cc1)c1ccc2ncsc2c1`, for which the activation is 145%.

For the compound `NS(=O)(=O)c1ccc(NC(=O)c2ccc3c(c2)CCCC3)cc1`, the activation is 23.2% (inactive).

As for `Cc1ccc(Cn2nc(C(=O)Nc3ccc(Br)cc3)cc2C)cc1`, the activation was 26.9% (inactive).

As to `CCCCCCC1CCC(C(=O)N2CCOCC2)CC1` (centres undefined), the activation was 17.2% (inactive).

For `CCc1ccc(/C=C2\SC(N3CCOCC3)=NC2=O)cc1`, the activation was 199%.

For the compound `CC(C)(C)c1ccc(/C=C/C(=O)N2CCCCC2)cc1`, the activation was 420%.

For `CC(C)(C)c1ccc(OCCCC(=O)N2CCOCC2)cc1`, the activation was 304%.

Regarding `Cc1cc(C(=O)NCCC2=CCCCC2)ccc1[N+](=O)[O-]`, the activation was 369%.

Take `O=C(NCc1ccccc1)[C@@H]1C[C@H]1[C@@H](NP(=O)(c1ccccc1)c1ccccc1)c1ccccc1`: the activation was 97.1%.

Regarding `CC(=O)c1ccc(N2CCN(C(=O)Nc3ccc(C(C)C)cc3)CC2)cc1`, the activation is 316%.

In the case of `CC(C)c1ccc(NC(=O)N2CCC(c3nc4ccccc4o3)CC2)cc1`, the activation is 135%.

For `CCC(C)Sc1cccc(-c2nc3ccc(Cl)cn3c2NCc2ccccc2)c1` (centres undefined), the activation is 10.9% (inactive).
